# According to PubChem BioAssay (NCI):
#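 A five-concentration, 48-hour dose response in 96-well plates underlies each endpoint, interpolated linearly between surrounding concentrations. At the GI50, growth is halved. At the TGI there is no net growth.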
# How the values were obtained:
# Test in all cases: growth of human tumour cells (NCI), 48 h
# 786-0 renal = system: 786-0 renal
# A498 renal = system: A498 renal
# A549 NSCLC = system: A549 NSCLC
# ACHN renal = system: ACHN renal
# BT-549 breast = system: BT-549 breast
# CAKI-1 renal = system: CAKI-1 renal
# CCRF-CEM leukemia = system: CCRF-CEM leukemia
# COLO 205 colon = system: COLO 205 colon
# DU-145 prostate = system: DU-145 prostate
# HCT-116 colon = system: HCT-116 colon
# HCT-15 colon = system: HCT-15 colon
# HL-60(TB) leukemia = system: HL-60(TB) leukemia
# HOP-62 NSCLC = system: HOP-62 NSCLC
# HS 578T breast = system: HS 578T breast
# HT29 colon = system: HT29 colon
# IGROV1 ovarian = system: IGROV1 ovarian
# K-562 leukemia = system: K-562 leukemia
# KM12 colon = system: KM12 colon
# LOX IMVI melanoma = system: LOX IMVI melanoma
# M14 melanoma = system: M14 melanoma
# MCF7 breast = system: MCF7 breast
# MDA-MB-231 breast = system: MDA-MB-231 breast
# MDA-MB-435 = system: MDA-MB-435
# MOLT-4 leukemia = system: MOLT-4 leukemia
# NCI-H226 lung = system: NCI-H226 lung
# NCI-H23 lung = system: NCI-H23 lung
# NCI-H460 lung = system: NCI-H460 lung
# NCI-H522 lung = system: NCI-H522 lung
# NCI/ADR-RES ovarian = system: NCI/ADR-RES ovarian
# OVCAR-3 ovarian = system: OVCAR-3 ovarian
# OVCAR-4 ovarian = system: OVCAR-4 ovarian
# OVCAR-5 ovarian = system: OVCAR-5 ovarian
# OVCAR-8 ovarian = system: OVCAR-8 ovarian
# PC-3 prostate = system: PC-3 prostate
# RPMI-8226 leukemia = system: RPMI-8226 leukemia
# SF-268 CNS = system: SF-268 CNS
# SF-295 CNS = system: SF-295 CNS
# SF-539 CNS = system: SF-539 CNS
# SK-MEL-2 melanoma = system: SK-MEL-2 melanoma
# SK-MEL-28 melanoma = system: SK-MEL-28 melanoma
# SK-MEL-5 melanoma = system: SK-MEL-5 melanoma
# SK-OV-3 ovarian = system: SK-OV-3 ovarian
# SN12C renal = system: SN12C renal
# SNB-19 CNS = system: SNB-19 CNS
# SNB-75 CNS = system: SNB-75 CNS
# SW-620 colon = system: SW-620 colon
# T-47D breast = system: T-47D breast
# U251 CNS = system: U251 CNS
# UACC-257 melanoma = system: UACC-257 melanoma
# UO-31 renal = system: UO-31 renal
smiles,measurement,setting,value
O=C(CCCC(=O)N/N=C/c1cc(Cl)ccc1O)N/N=C\c1cc(Cl)ccc1O,GI50,786-0 renal,3.59 µM
same,TGI,786-0 renal,> 100 µM
same,GI50,A498 renal,55 µM
same,TGI,A498 renal,> 100 µM
same,GI50,A549 NSCLC,3.69 µM
same,TGI,A549 NSCLC,> 100 µM
same,GI50,ACHN renal,1.58 µM
same,TGI,ACHN renal,> 100 µM
same,GI50,BT-549 breast,7.34 µM
same,TGI,BT-549 breast,> 100 µM
same,GI50,CAKI-1 renal,1.98 µM
same,TGI,CAKI-1 renal,> 100 µM
same,GI50,CCRF-CEM leukemia,1.25 µM
same,TGI,CCRF-CEM leukemia,34.3 µM
same,GI50,COLO 205 colon,4.16 µM
same,TGI,COLO 205 colon,> 100 µM
same,GI50,DU-145 prostate,6.75 µM
same,TGI,DU-145 prostate,> 100 µM
same,GI50,HCT-116 colon,3.75 µM
same,TGI,HCT-116 colon,> 100 µM
same,GI50,HCT-15 colon,0.574 µM
same,TGI,HCT-15 colon,> 100 µM
same,GI50,HL-60(TB) leukemia,2.48 µM
same,TGI,HL-60(TB) leukemia,8.28 µM
same,GI50,HOP-62 NSCLC,5.05 µM
same,TGI,HOP-62 NSCLC,> 100 µM
same,GI50,HS 578T breast,> 100 µM
same,TGI,HS 578T breast,> 100 µM
same,GI50,HT29 colon,21.2 µM
same,TGI,HT29 colon,> 100 µM
same,GI50,IGROV1 ovarian,4.21 µM
same,TGI,IGROV1 ovarian,> 100 µM
same,GI50,K-562 leukemia,2.88 µM
same,TGI,K-562 leukemia,> 100 µM
same,GI50,KM12 colon,3.98 µM
same,TGI,KM12 colon,> 100 µM
same,GI50,LOX IMVI melanoma,1.69 µM
same,TGI,LOX IMVI melanoma,25.4 µM
same,GI50,M14 melanoma,3.21 µM
same,TGI,M14 melanoma,> 100 µM
same,GI50,MCF7 breast,2.54 µM
same,TGI,MCF7 breast,> 100 µM
same,GI50,MDA-MB-231 breast,2.63 µM
same,TGI,MDA-MB-231 breast,91.6 µM
same,GI50,MDA-MB-435,6.87 µM
same,TGI,MDA-MB-435,> 100 µM
same,GI50,MOLT-4 leukemia,2.52 µM
same,TGI,MOLT-4 leukemia,23.2 µM
same,GI50,NCI-H226 lung,6.64 µM
same,TGI,NCI-H226 lung,65.7 µM
same,GI50,NCI-H23 lung,11.9 µM
same,TGI,NCI-H23 lung,> 100 µM
same,GI50,NCI-H460 lung,2.94 µM
same,TGI,NCI-H460 lung,> 100 µM
same,GI50,NCI-H522 lung,3.62 µM
same,TGI,NCI-H522 lung,> 100 µM
same,GI50,NCI/ADR-RES ovarian,3.44 µM
same,TGI,NCI/ADR-RES ovarian,> 100 µM
same,GI50,OVCAR-3 ovarian,0.847 µM
same,TGI,OVCAR-3 ovarian,> 100 µM
same,GI50,OVCAR-4 ovarian,1.25 µM
same,TGI,OVCAR-4 ovarian,> 100 µM
same,GI50,OVCAR-5 ovarian,> 100 µM
same,TGI,OVCAR-5 ovarian,> 100 µM
same,GI50,OVCAR-8 ovarian,2.86 µM
same,TGI,OVCAR-8 ovarian,> 100 µM
same,GI50,PC-3 prostate,2.68 µM
same,TGI,PC-3 prostate,> 100 µM
same,GI50,RPMI-8226 leukemia,4.67 µM
same,TGI,RPMI-8226 leukemia,> 100 µM
same,GI50,SF-268 CNS,2.5 µM
same,TGI,SF-268 CNS,> 100 µM
same,GI50,SF-295 CNS,3.74 µM
same,TGI,SF-295 CNS,> 100 µM
same,GI50,SF-539 CNS,2.66 µM
same,TGI,SF-539 CNS,33.5 µM
same,GI50,SK-MEL-2 melanoma,> 100 µM
same,TGI,SK-MEL-2 melanoma,> 100 µM
same,GI50,SK-MEL-28 melanoma,3.68 µM
same,TGI,SK-MEL-28 melanoma,> 100 µM
same,GI50,SK-MEL-5 melanoma,2.5 µM
same,TGI,SK-MEL-5 melanoma,> 100 µM
same,GI50,SK-OV-3 ovarian,5.95 µM
same,TGI,SK-OV-3 ovarian,> 100 µM
same,GI50,SN12C renal,4.3 µM
same,TGI,SN12C renal,> 100 µM
same,GI50,SNB-19 CNS,4.42 µM
same,TGI,SNB-19 CNS,> 100 µM
same,GI50,SNB-75 CNS,8.16 µM
same,TGI,SNB-75 CNS,> 100 µM
same,GI50,SW-620 colon,3.69 µM
same,TGI,SW-620 colon,> 100 µM
same,GI50,T-47D breast,3.23 µM
same,TGI,T-47D breast,> 100 µM
same,GI50,U251 CNS,2.31 µM
same,TGI,U251 CNS,> 100 µM
same,GI50,UACC-257 melanoma,2.71 µM
same,TGI,UACC-257 melanoma,> 100 µM
same,GI50,UO-31 renal,1.24 µM
same,TGI,UO-31 renal,> 100 µM
